We go through 15 molecules from patent US20090208462A1, “Methods of Treatment” (IMPERIAL INNOVATIONS LIMITED, priority 2004, published 2009).

Assay [1] relates to melanopsin transduction cascade. Briefly: Properties of the melanopsin transduction cascade: drug effects on light evoked current. Type of assay: cell-based, mouse. To be noted: for effect on light evoked currents: 420 nm 10 sec 8×10^14 photons/cm^2/s; for effect on light evoked currents / effect on light induced current / effect on photoresponses / effect on light evoked current: 9-cis retinal 20 μM; for effect on light induced current / effect on photoresponses / effect on light evoked current: 420 nm 10 sec. How it is done: (§1) Mouse Neuro-2a cells (American Type Culture Collection; Cat no. CCL-131) were maintained at 37° C. in D-MEM, Dulbecco's Modified Eagle Medium with GlutaMAX™ I, 4500 mg/l D-Glucose, Sodium Pyruvate (D-MEM, Invitrogen) with 10% foetal bovine serum, 1% non-essential amino acids and 20 μg/ml gentomycin in a 5% CO2 atmosphere. Cells were trypsintsed, split and cultured at 1×10^5/ml in 90 mm dishes for 24 hours prior to transfection with plasmid vectors using lipofectamine (Invitrogen) in serum-free medium. DNA to lipid ratio was 10 μg DNA: 100 μg lipid. After transfection serum free medium was replaced with normal medium. On the following day, 2-3 days before study, cell differentiation was induced using 10 μM retinoic acid (Provencio et al., 2000). Starting from this point cells were kept in darkness. On the day of recording, glass coverslips serving as a substrate for cell attachment were transferred to the recording chamber. The perfusion solution contained 140 mM NaCl, […], 1 mM MgCl2, 2 mM CaCl2, 5 mM glucose, 10 mM HEPES (pH 7.3-7.4; 24° C.). Successfully transfected cells were identified by EGFP fluorescence under a 480 nm stimulus light using an OLYMPUS BX51WI microscope. At this point, retinal isoforms (20 μM; 9-cis and all-trans from Sigma-Aldrich; 11-cis from Dr R K Crouch, Medical University of S.C.) were added to the perfusion solution as necessary and cells kept in the dark for at least 1 hour before recording. Whole-cell patch-clamp recordings were made with pipettes containing 140 mM KCl, 10 mM NaCl, 1 mM MgCl2, 10 mM HEPES, 10 mM EGTA. Osmolarity was adjusted to 285±5 mosmol (milliosmol) 1^−1 and pH to 7.3-7.4 with KOH. Open pipette resistance was 2-5 MΩ (mega-ohms), and access resistance during recordings was <20 MΩ. Currents were recorded (Axopatch 200B, Axon Instruments) in neurons voltage clamped at holding potentials of −50 mV (milli-volt). The records were filtered at 1 kHz (kilohertz) and sampled at 20 kHz. Drugs were obtained from Sigma Aldrich, with the exception of NEM (N-ethylmaledomide) (Calbiochem), and DL-AP5, NF023, KT5720, U73122 and thapsigargin (all Tocris Cookson), drugs applied in superfusion were applied for 15-20 minutes prior to light stimulation.
(§2) Light stimuli were generated using a Cairn Optoscan Xenon arc source comprising a slit monochromator. Unless otherwise stated al stimuli were 10 sec in duration with a 20 nm half-bandwidth. Irradiance was measured using an optical powermeter (Macam Photometrics) and converted to photon flux. […] The nature of glutamate receptor expression in Neuro-2a cells remains ambiguous, nonetheless we excluded the possibility that this might be the origin of the melanopsin light response by application of the selective NMDA antagonist APV (2-amino-5-phosphonovaleric acid) (100 μM) which had no effect upon the light sensitive current (data not shown)

In the next assay the target is T1, human melanopsin (Homo sapiens, UniProt Q9UHM6).
T1 construct: expressed in transfected cells; host or cells: Mouse Neuro-2a cells (ATCC CCL-131), lipofectamine transfection with the pCMS-EGFP-based melanopsin vector, differentiated with retinoic acid
T1 sequence (Q9UHM6 1-478): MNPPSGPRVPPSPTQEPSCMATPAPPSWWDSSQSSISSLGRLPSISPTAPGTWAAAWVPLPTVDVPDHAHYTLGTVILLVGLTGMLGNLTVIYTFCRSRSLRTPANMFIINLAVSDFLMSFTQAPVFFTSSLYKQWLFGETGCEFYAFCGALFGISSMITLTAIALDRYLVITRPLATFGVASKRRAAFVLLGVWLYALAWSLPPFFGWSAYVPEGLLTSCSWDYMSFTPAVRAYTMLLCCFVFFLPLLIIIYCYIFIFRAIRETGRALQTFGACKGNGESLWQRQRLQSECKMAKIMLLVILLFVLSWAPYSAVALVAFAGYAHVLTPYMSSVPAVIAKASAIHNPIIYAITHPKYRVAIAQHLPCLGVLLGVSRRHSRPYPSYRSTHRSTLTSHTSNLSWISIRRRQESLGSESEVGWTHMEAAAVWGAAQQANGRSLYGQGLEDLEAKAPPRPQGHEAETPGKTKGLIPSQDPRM
Briefly: Retinaldehyde dependence of the light evoked current in melanopsin expressing cells. Type of assay: cell-based. To be noted: for light-induced response to 540 nm stimulation itself: 20 nm half-bandwidth; for light evoked peak inward current after retinal preloading / change in 420 nm light evoked current after 540 nm light exposure: retinal 20 μM; for light evoked peak inward current after retinal preloading: 1 hour, 420 nm, 8×10^14 photons/cm^2/sec; for change in 420 nm light evoked current after 540 nm light exposure: 540 nm 10 mins (2×10^14 photons/cm^2/s), retest 420 nm 10 sec. How it is done:
as §1, §2

Assay [2] relates to Neuro-2a cells. Briefly: Whole cell recordings of light evoked current in Neuro-2a cells expressing human melanopsin. It is filed as cell-based, mouse.
Text: The full length coding sequence of human melanopsin was amplified from retinal cDNA using Pfu-Turbo DNA polymerase (Stratagene) and the following restriction tagged primers: […]
The product was cloned into the pLITMUS28 Vector (New England Biolabs) and sequenced to confirm that there was no deviation from the reported sequence NM_033282; SEQ ID NO: 1). The product was subsequently cloned into the pCMS-EGFP vector (BD Biosciences), such that expression would be driven by the CMV immediate early promoter. A C-terminal 6×His-tagged melanopsin construct was generated in a similar manner, using the following primers: […]
as §1, §2

The subject of assay [3] is Neuro-2a cells. Description: Spectral sensitivity of the light evoked current (pCI-neo human melanopsin). It is filed as cell-based, mouse. Particulars: 11-cis retinal, mean±SEM. The protocol: For analyses of spectral sensitivity EGFP expression was excluded by employing the pCI-neo mammalian expression vector (Promega).
as §1, §2
In order to assess the correspondence, if any, between the Neuro-2a light response and these action spectra we assessed cellular responses to stimuli ranging from 300 to 540 nm in cells transfected with a pCI-neo expression vector (Promega) driving human melanopsin. EGFP was not included as a marker of expression for these experiments because of its light absorbing and fluorescent properties. […]

Entries after “also recorded” stand apart in the source; their conditions may differ.

Consider `O=C(Nc1cccc(C(=O)Nc2ccc(S(=O)(=O)O)c3cc(S(=O)(=O)O)cc(S(=O)(=O)O)c23)c1)Nc1cccc(C(=O)Nc2ccc(S(=O)(=O)O)c3cc(S(=O)(=O)O)cc(S(=O)(=O)O)c23)c1` [NF023], for which the “effect on light evoked currents” value in assay [1] (up to 1 μM in bath) was “no effect; also recorded: did not antagonise”.

As to `CCCCCCOC(=O)[C@]1(O)C[C@@H]2O[C@@]1(C)n1c3ccccc3c3c4c(c5c6ccccc6n2c5c31)C(=O)NC4` [KT5720], the “effect on light induced current” value in assay [1] (1 μM) is given as “did not affect”.

In the case of `CC1=C(/C=C/C(C)=C\C=C\C(C)=C\C=O)C(C)(C)CCC1` [9-cis retinal], on human melanopsin, the “light-induced response to 540 nm stimulation itself” value is reported as “did not in itself evoke”, the “light evoked peak inward current after retinal preloading” value (“light evoked peak inward current” for short) is listed as “Significant photosensitivity” and the “change in 420 nm light evoked current after 540 nm light exposure” value is recorded as “only a small potentiation”. On human melanopsin (listed as 9-cis-retinal), the “light evoked peak inward current” value is given as “more responsive”.

With `COc1ccc2c(c1)CC[C@@H]1[C@@H]2CC[C@]2(C)[C@@H](NCCCCCCN3C(=O)C=CC3=O)CC[C@@H]12` [U73122], the “effect on light induced current” value in assay [1] (50 μM) is “did not affect; also recorded: did not block”.

For the molecule `Cc1ccc(C(=O)Nc2ccc(S(=O)(=O)O)c3cc(S(=O)(=O)O)cc(S(=O)(=O)O)c23)cc1NC(=O)c1cccc(NC(=O)Nc2cccc(C(=O)Nc3cc(C(=O)Nc4ccc(S(=O)(=O)O)c5cc(S(=O)(=O)O)cc(S(=O)(=O)O)c45)ccc3C)c2)c1` [suramin], the effect on photoresponses entry in assay [1] (100 μM in bath) is given as “largely abolished; also recorded: abolish”.

As for `CCN1C(=O)C=CC1=O` [NEM, N-ethylmaledomide], the “effect on light evoked currents” value in assay [1] (50 μM in bath) is listed as “no effect”; in assay [1] (50 μM in bath, listed as N-ethyl), “did not antagonise”.

As to `Nc1nc2c(nc(Br)n2[C@@H]2O[C@@H]3COP(=O)(O)O[C@H]3[C@H]2O)c(=O)[nH]1` [8-Br-cGMP], the “effect on light response” value in assay [1] (1 mM in pipette) is “abolished”. Also, in assay [1] (in patch pipette, 100 μM and 1 nM), the “effect on light induced current” value is “dose dependent suppression”.

For the molecule `Nc1nc2c(ncn2[C@@H]2O[C@H](COP(=O)(O)OP(=O)(O)OP(O)(O)=S)[C@@H](O)[C@H]2O)c(=O)[nH]1` [GTPγS], the effect on photoresponses result in assay [1] (1 mM in patch pipette) was “largely abolished; also recorded: abolish”.

As for `CC1=C(/C=C/C(C)=C/C=C/C(C)=C/C=O)C(C)(C)CCC1` [all-trans retinal], at human melanopsin, the “light-induced response to 540 nm stimulation itself” value is recorded as “did not in itself evoke”, the “light evoked peak inward current” value is listed as “modest light response” and the “change in 420 nm light evoked current after 540 nm light exposure” value was “large increase; also recorded: three-fold increase”.

Turning to `Cn1cc(C2=C(c3cn(CCCSC(=N)N)c4ccccc34)C(=O)NC2=O)c2ccccc21` [RO31-8220], the “effect on light induced current” value in assay [1] (100 nM) was “did not affect”.

With `C/C=C(/C)C(=O)O[C@H]1C(C)=C2[C@H]([C@@H]1OC(=O)CCCCCCC)[C@@](C)(OC(C)=O)C[C@H](OC(=O)CCC)[C@@]1(O)[C@H]2OC(=O)[C@@]1(C)O` [thapsigargin], the “effect on light evoked current” value in assay [1] (5 to 10 μM in zero calcium perfusates for 15-20 mins) is given as “abolished”.

On to `CC1=C(/C=C/C(C)=C/C=C/C(C)=C/C=O)C(C)(C)CCC1` [11-cis retinal], for which the “light evoked peak inward current” value at human melanopsin was “Significant photosensitivity; also recorded: significantly more effective”; at human melanopsin (listed as 11-cis-retinal), “more responsive”.

`NC(CCCP(=O)(O)O)C(=O)O` (racemic) [APV, 2-amino-5-phosphonovaleric acid]: the “effect upon the light sensitive current” value in assay [1] (100 μM, data not shown) is “no effect”.

As to `[Cd+2]` [Cd^2+], the “effect on light evoked current” value in assay [1] (100 μM, and/or removal of calcium from perfusate) is recorded as “little significant effect”.

B1: human melanopsin: opsin photoactivator, SEQ ID NO:2, expressed from CMV-driven plasmid vector in Neuro-2a cells (protein, listed as Homo sapiens)
chain: MNSGRVSTSCMATASWWDSSSSSSGRSSTAGTWAAAWVTVDVDHAHYTGTVVGTGMGNTVYTCRSRSRTANMNAVSDMSTAVTSSYKWGTGCYACGAGSSMTTAADRYVTRATGVASKRRAAVGVWYAAWSGWSAYVGTSCSWDYMSTAVRAYTMCCVYCYRARTGRATGACKGNGSWRRSCKMAKMVVSWAYSAVAVAAGYAHVTYMSSVAVAKASAHNYATHKYRVAAHCGVGVSRRHSRYSYRSTHRSTTSHTSNSWSRRRSGSSVGWTHMAAAVWGAAANGRSYGGDAKARGHATGKTKGSDRM
modifications: Human melanopsin
Consider B1, for which, in the assay with Neuro-2a cells [2] (420 nm, 10 sec, 8×10^13 or 8×10^14 photons/cm^2/sec, whole cell recording), the “light evoked current, intensity dependence” value is given as “intensity dependent sustained inward current”. The “cellular response to light exposure” value in the assay on Neuro-2a cells [2] (Neuro-2a cells expressing human melanopsin, 9-cis retinal 20 μM, 1 hour, 420 nm, 10 sec stimulus) was “marked cellular response”. Besides, the light sensitivity result in the assay on Neuro-2a cells [2] (absence of exogenous retinal) is reported as “not light sensitive”. Also, the “reversal potential of the response” value in the assay on Neuro-2a cells [2] (light-activated current, Neuro-2a cells) was 0 to −10 mV. In addition, the “peak light evoked slope conductance” value in the assay on Neuro-2a cells [2] (voltage ramp −100 to +100 mV, linear between −100 and −50 mV, 9-cis retinal, mean±SEM, n=13) came to 6.46±0.82 nS. In addition, the light evoked current amounted to 72.5±19 pA in the assay with Neuro-2a cells [3] (360 nm, 3×10^14 photons/cm^2/s); 80±11 pA with Neuro-2a cells [3] (420 nm, 8×10^14 photons/cm^2/s); 32.7±14 pA with Neuro-2a cells [3] (440 nm, 2×10^15 photons/cm^2/s); 8.5±1.2 pA with Neuro-2a cells [3] (490 nm); 2.0±1.2 pA in the assay with Neuro-2a cells [3] (540 nm, 2×10^14 photons/cm^2/s).
